Laboratory results as given in US20220370440A1 (Lead Discovery Center GmbH, priority 2018, published 2022).

Key:
[1] = molecular target: EGFR T790ML858R (Homo sapiens, UniProt P00533, L858R/T790M); assay: EGFR T790ML858R Lance assay; assay type: biochemical
Experimental: (§1) Inhibition is indicated as […] [nM] (“−”=not measured). Compounds having an activity designated as “A” provided an IC50≤100 nM; compounds having an activity designated as “B” provided an 100 nM<IC50≤500 nM; compounds having an activity designated as “C” provided an 500 nM<IC50≤1000 nM; compounds having an activity designated as “D” provided an 1000 nM<IC50≤100000 nM; and compounds having an activity designated as “E” provided an IC50>10000 nM.

[2] = test system: H1975; assay: H1975 CellTiter-Glo; assay type: cell-based; details: Homo sapiens, NCI-H1975; 72 h compound incubation; read-out: H1975 CTG IC50
Experimental: (§2) 2. Measurement of Cellular Activity
(§3) The CellTiter-Glo Luminescent Cell Viability Assay (Promega) is a homogeneous method of determining the number of viable cells in culture. It is based on quantification of ATP, indicating the presence of metabolically active cells. Cells are seeded on day 1 at cell numbers that assure assay linearity and optimal signal intensity. After incubation for 24 h in humidified chambers at 37° C. and 5% CO2, compounds in DMSO are added at different concentrations. Cells are further incubated for 72 h at 37° C. and 5% CO2. Cells treated with the compound vehicle DMSO are used as positive controls and cells treated with 10 μM Staurosporine serve as negative controls. At day 5 the CellTiter Glo Reagent is prepared according to the instructions of the kit (Promega Inc.): Reagent is mixed 1:1 with cell culture medium. Thereon, mixture and assay plates are equilibrated at room temperature for 20 min. Equal volumes of the reagent-medium-mixture is added to the volume of culture medium present in each well. The plates are mixed at ˜200 rpm for 2 minutes on an orbital shaker. The microplates are then incubated at room temperature for 10 minutes for stabilization of the luminescent signal. Following incubation the luminescence is recorded on a Victor microplate reader (Perkin Elmer) using a 200 ms integration time. The data is then analyzed with Excel using the XLFIT Plugin (dose response Fit 205) for IC50-determination. As quality control the Z′-factor is calculated from 16 positive and negative control values. Only assay results showing a Z′-factor ≥0.5 are used for further analysis.
as §1

[3] = molecular target: EGFR wt (Homo sapiens, UniProt P00533); assay: EGFR wt Lance assay; assay type: biochemical
EGFR wt, sequence (P00533 25-1210): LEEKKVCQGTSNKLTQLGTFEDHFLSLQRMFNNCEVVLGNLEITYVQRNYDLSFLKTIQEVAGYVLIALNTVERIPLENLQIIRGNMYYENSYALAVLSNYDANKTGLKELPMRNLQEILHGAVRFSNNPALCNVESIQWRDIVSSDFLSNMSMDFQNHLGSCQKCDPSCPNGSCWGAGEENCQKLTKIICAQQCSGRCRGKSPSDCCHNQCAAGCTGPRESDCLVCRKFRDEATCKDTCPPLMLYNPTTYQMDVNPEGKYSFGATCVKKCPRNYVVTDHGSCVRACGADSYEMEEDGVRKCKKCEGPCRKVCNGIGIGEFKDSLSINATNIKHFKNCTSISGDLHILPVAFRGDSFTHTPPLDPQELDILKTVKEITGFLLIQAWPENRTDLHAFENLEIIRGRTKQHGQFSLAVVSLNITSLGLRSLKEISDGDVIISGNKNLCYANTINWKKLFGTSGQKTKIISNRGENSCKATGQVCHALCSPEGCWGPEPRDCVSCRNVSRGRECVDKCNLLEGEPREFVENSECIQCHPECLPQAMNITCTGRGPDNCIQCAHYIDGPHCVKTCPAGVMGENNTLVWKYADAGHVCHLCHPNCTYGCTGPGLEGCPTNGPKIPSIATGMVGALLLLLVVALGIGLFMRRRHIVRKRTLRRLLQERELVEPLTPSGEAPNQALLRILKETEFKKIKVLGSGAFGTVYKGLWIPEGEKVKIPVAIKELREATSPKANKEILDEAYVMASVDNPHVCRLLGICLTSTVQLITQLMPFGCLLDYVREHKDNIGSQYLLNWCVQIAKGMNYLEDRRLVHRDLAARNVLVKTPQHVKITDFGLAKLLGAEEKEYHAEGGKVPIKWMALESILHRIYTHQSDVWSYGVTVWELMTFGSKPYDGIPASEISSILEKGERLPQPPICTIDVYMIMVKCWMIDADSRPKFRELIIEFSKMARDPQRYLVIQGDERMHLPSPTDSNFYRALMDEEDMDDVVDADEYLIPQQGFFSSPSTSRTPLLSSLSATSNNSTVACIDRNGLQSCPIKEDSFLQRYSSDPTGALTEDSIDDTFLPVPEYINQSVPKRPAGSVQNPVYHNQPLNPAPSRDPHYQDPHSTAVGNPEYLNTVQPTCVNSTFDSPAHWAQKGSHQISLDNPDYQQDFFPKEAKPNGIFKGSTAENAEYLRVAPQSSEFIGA
Experimental: as §1

[4] = test system: A431; assay: A431 CellTiter-Glo; assay type: cell-based; details: Homo sapiens, A-431; 72 h compound incubation; read-out: A431 CTG IC50
Experimental: as §2, §3, §1

[5] = molecular target: EGFR Exon 20 INSNPH Ba/F3 (Homo sapiens, UniProt P00533, DUP771-773, cells depend on it); assay: EGFR Exon 20 INSNPH Ba/F3 CellTiter-Glo; assay type: cell-based; details: CellTiter-Glo, 72 h, read-out: EGFR Exon 20 INSNPH Ba/F3 CTG IC50
EGFR Exon 20 INSNPH Ba/F3, sequence (P00533 with tags, fused parts or gaps DUP771-773): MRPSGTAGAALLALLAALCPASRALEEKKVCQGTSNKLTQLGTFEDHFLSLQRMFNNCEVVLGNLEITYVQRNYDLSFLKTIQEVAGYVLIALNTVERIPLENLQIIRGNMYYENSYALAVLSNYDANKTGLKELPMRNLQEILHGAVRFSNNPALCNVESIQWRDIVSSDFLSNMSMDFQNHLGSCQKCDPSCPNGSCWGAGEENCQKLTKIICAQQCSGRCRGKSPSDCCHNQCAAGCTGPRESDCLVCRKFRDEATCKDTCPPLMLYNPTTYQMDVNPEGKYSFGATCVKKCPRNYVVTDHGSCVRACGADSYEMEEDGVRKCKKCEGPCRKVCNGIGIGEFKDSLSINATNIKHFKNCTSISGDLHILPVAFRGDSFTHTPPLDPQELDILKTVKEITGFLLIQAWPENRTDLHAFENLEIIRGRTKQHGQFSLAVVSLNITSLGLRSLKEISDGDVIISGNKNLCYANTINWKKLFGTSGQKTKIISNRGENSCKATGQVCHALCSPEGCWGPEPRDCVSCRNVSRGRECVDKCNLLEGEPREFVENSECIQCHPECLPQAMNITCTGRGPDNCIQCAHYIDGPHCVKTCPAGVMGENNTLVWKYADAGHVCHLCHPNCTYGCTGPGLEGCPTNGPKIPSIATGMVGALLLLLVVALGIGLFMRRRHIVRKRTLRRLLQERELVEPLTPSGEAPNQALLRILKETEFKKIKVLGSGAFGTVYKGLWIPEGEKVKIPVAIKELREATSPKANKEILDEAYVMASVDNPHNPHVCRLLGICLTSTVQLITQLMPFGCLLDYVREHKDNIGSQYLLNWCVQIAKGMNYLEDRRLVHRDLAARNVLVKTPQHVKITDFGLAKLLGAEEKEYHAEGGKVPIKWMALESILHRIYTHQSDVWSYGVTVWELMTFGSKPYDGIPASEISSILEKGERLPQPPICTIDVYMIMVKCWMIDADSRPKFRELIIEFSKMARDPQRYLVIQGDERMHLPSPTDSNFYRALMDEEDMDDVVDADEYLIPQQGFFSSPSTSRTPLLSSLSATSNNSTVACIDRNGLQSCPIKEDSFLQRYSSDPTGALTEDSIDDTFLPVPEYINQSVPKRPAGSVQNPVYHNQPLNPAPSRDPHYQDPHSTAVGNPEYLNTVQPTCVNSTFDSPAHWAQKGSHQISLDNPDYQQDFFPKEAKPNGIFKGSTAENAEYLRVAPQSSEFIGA
Experimental: as §2, §3
(§4) Inhibition is indicated as IC50 [nM] (“−”=not measured). Compounds having an activity designated as “A” provided an IC50≤100 nM; compounds having an activity designated as “B” provided an 100 nM<IC50≤500 nM; compounds having an activity designated as “C” provided an 500 nM<IC50≤1000 nM; compounds having an activity designated as “D” provided an 1000 nM<IC50≤10000 nM; and compounds having an activity designated as “E” provided an IC50>10000 nM.

[6] = molecular target: Her2 Exon 20 INSYVMA Ba/F3 (Homo sapiens, UniProt P04626, DUP772-775, cells depend on it); assay: Her2 Exon 20 INSYVMA Ba/F3 CellTiter-Glo; assay type: cell-based; details: CellTiter-Glo, 72 h, read-out: Her2 Exon 20 INSYVMA Ba/F3 CTG IC50
Her2 Exon 20 INSYVMA Ba/F3, sequence (P04626 with tags, fused parts or gaps DUP772-775): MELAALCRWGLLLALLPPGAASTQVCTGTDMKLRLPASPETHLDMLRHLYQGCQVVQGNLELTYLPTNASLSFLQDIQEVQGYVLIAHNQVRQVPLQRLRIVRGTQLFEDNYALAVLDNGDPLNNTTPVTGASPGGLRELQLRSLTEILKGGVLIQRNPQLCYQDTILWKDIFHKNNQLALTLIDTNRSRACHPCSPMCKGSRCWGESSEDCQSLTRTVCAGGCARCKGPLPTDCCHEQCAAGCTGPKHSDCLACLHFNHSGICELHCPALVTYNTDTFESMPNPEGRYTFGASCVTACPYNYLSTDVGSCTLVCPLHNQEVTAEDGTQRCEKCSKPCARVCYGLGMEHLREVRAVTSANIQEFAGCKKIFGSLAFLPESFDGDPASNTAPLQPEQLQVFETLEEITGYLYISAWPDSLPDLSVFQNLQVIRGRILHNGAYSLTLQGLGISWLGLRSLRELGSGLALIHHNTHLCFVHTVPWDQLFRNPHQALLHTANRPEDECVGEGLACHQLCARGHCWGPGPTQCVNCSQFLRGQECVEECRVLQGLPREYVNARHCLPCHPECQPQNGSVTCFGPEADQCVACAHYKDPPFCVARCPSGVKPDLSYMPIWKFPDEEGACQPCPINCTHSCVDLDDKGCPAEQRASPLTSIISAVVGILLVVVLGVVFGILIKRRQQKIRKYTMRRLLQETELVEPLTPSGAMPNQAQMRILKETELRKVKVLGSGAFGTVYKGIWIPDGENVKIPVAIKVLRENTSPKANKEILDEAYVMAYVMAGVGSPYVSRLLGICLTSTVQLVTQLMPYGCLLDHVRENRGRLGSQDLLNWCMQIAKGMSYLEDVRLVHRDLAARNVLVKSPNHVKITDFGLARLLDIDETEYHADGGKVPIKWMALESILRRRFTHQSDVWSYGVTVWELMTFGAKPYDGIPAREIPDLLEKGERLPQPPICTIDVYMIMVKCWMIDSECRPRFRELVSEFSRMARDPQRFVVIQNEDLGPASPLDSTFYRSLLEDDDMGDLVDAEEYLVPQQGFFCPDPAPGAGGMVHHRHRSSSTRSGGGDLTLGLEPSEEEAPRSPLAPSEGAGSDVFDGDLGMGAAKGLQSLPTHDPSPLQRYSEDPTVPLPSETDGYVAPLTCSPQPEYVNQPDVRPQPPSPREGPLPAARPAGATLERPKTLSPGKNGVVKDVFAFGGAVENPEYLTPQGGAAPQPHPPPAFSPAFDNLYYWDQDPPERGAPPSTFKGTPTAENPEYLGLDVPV
Experimental: as §2, §3, §4

[7] = molecular target: T1, HER2 INS YVMA (Homo sapiens, UniProt P04626, INS775YVMA); assay: Lance Kinase Activity Assay, HER2 INS YVMA (Her2 Exon 20 INSYVMA Lance); assay type: biochemical; details: biochemical Lance assay
T1 construct: purchased DPF
T1 sequence (P04626 with tags, fused parts or gaps INS775YVMA): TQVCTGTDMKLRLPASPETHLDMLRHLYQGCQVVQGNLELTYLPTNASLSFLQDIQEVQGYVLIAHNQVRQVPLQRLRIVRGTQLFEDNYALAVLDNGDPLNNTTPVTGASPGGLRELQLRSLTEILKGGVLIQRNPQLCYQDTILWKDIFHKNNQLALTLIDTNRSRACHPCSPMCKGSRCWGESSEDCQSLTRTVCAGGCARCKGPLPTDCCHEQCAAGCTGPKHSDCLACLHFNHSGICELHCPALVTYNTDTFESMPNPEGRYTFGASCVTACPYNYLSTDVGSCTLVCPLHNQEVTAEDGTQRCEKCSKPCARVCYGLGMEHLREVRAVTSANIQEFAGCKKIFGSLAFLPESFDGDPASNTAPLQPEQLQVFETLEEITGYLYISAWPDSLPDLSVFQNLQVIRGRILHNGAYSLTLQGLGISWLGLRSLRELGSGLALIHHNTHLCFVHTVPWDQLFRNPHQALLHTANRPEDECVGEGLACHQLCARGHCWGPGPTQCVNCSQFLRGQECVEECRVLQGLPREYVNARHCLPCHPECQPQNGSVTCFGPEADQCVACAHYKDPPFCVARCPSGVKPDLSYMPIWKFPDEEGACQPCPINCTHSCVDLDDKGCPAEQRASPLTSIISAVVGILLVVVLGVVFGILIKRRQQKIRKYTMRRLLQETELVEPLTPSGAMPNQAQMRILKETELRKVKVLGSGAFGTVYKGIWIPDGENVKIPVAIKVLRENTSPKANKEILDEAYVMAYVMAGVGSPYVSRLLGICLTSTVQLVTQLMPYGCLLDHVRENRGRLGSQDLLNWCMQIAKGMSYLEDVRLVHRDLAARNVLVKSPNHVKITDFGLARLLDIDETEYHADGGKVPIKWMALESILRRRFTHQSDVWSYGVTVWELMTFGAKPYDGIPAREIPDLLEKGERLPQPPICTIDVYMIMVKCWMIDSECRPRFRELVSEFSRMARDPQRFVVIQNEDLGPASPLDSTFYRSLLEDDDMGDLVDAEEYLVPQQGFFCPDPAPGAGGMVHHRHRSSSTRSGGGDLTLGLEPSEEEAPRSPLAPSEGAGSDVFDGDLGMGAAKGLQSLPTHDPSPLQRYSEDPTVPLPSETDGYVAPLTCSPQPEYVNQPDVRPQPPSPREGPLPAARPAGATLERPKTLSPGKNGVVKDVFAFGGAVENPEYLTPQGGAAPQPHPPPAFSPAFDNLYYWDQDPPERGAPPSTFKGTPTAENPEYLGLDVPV
Experimental: 1. Measurement of HER2 INS YVMA Kinase Activity
This protocol describes how the Lance Kinase Activity Assay was performed to determine IC50 values of compounds of general formula (I) against HER2 INS YVMA. The principle behind this enzymatic assay is based upon the phosphorylation of the Ulight-peptide substrate. It is detected by using a specific EU-labeled anti-phospho peptide antibody. The binding of the Eu labeled anti-phospho peptide antibody to the phosphorylated ULight labeled peptide gives rise to a FRET-signal.
Binding of an inhibitor to the kinase prevents phosphorylation of the Ulight-substrate, resulting in a loss of FRET. In table 2 is summarized the relevant information for the LANCE assay.
The compounds of general formula (I) summarized in Table 3 were serial diluted from a 10 mM DMSO stock solution 1:3 over 8 steps in a total volume of 20 μl.
For every sample, 8 μl of kinase-substrate mix was transferred into a suitable assay plate (e.g. Corning #3673). Compound was added via pintool transfer (10 nl/well) using a Biomek FX robot (BeckmanCoulter). Reaction was started by addition of 2 μl ATP working solution and mixed using variomag teleshaker (Thermo Fischer Scientific). After 1 h incubation at room temperature the reaction was stopped with 10 μl detection mix containing the Eu-labeled phosphospecific antibody and 10 mM EDTA. After a second incubation period of 1 h at room temperature the FRET signal was measured at 340 nm excitation, 665 nm and 615 nm emission (for the ULight-substrate and Eu-AB, respectively) with an Envision spectrophotometer (Perkin Elmer, Waltham, Mass., USA) with 50 μs delay and 300 μs integration time. IC50 values were determined from the sigmoidal dose response curves with the software Quattro Workflow (Quattro GmbH, Munich, Germany).

Row | SMILES | IC50 [1] [nM] | IC50 [2] [nM] | IC50 [3] [nM] | IC50 [4] [nM] | GI50 [5] [nM] | GI50 [6] [nM] | IC50 [7] [nM]
1 | C=CC(=O)Nc1cc(-c2c(-c3ccc(N4CCN(C)CC4)nc3)[nH]c3ncc(C(=O)OC(C)C)cc23)cc(F)c1C [Example 174, isopropyl 3-(3-acrylamido-5-fluoro-4-methylphenyl)-2-(6-(4-methylpiperazin-1-yl)pyridin-3-yl)-1H-pyrrolo[2,3-b]pyridine-5-carboxylate] | ≤ 100 | 500 to 1000 | ≤ 100 | 1000 to 100000 | 100 to 500 | 500 to 1000 | ≤ 100
2 | C=CC(=O)Nc1cc(-c2c(-c3ccc(OCCO)cc3)[nH]c3ncc(C(=O)OC(C)C)cc23)ccc1C [Example 178, isopropyl 3-(3-acrylamido-4-methylphenyl)-2-(4-(2-hydroxyethoxy)phenyl)-1H-pyrrolo[2,3-b]pyridine-5-carboxylate] | 100 to 500 | 1000 to 100000 | ≤ 100 | 1000 to 100000 | 500 to 1000 | 1000 to 10000 | 100 to 500
3 | C=CC(=O)Nc1cc(-c2c(-c3cnc(N4CCN(C)CC4)nc3)[nH]c3ncc(C(=O)OC(C)C)cc23)ccc1C [Example 175, isopropyl 3-(3-acrylamido-4-methylphenyl)-2-(2-(4-methylpiperazin-1-yl)pyrimidin-5-yl)-1H-pyrrolo[2,3-b]pyridine-5-carboxylate] | 100 to 500 | 1000 to 100000 | ≤ 100 | 1000 to 100000 | 1000 to 10000 | 1000 to 10000 | 100 to 500
4 | C=CC(=O)Nc1cc(-c2c(-c3cccc(C(=O)N4CCN(C(C)=O)CC4)c3)[nH]c3nccc(Cl)c23)ccc1C [Example 52, N-(5-(2-(3-(4-acetylpiperazine-1-carbonyl)phenyl)-4-chloro-1H-pyrrolo[2,3-b]pyridin-3-yl)-2-methylphenyl)acrylamide] | ≤ 100 | 100 to 500 | 100 to 500 |  | 1000 to 10000 | 1000 to 10000 | 100 to 500
5 | C=CC(=O)Nc1cc(-c2c(-c3cccc(C(=O)N4CCN(C)CC4)c3)[nH]c3nccc(Cl)c23)ccc1C [Example 44, N-(5-(4-chloro-2-(3-(4-methylpiperazine-1-carbonyl)phenyl)-1H-pyrrolo[2,3-b]pyridin-3-yl)-2-methylphenyl)acrylamide 2,2,2-trifluoroacetate] | ≤ 100 | 100 to 500 | 100 to 500 |  | 1000 to 10000 | 1000 to 10000 | 100 to 500
6 | C=CC(=O)Nc1cc(-c2c(-c3ccc(N4CCN(C)CC4)cc3)[nH]c3ncc(C(=O)OC(C)C)c(C)c23)ccc1C [Example 198, isopropyl 3-(3-acrylamido-4-methylphenyl)-4-methyl-2-(4-(4-methylpiperazin-1-yl)phenyl)-1H-pyrrolo[2,3-b]pyridine-5-carboxylate] | ≤ 100 | 100 to 500 | ≤ 100 | 500 to 1000 |  |  | ≤ 100
7 | C=CC(=O)Nc1cc(-c2c(-c3cccc(C(=O)NC4CCCCC4)c3)[nH]c3nccc(Cl)c23)ccc1C [Example 50, 3-(3-(3-acrylamido-4-methylphenyl)-4-chloro-1H-pyrrolo[2,3-b]pyridin-2-yl)-N-cyclohexylbenzamide] | 100 to 500 | 500 to 1000 | 1000 to 100000 |  | 1000 to 10000 | 1000 to 10000 | > 10000
